The record followed here is PubChem BioAssay (NCI).

Holding throughout (test): NCI anticancer screen, dose series, 48 h
For experiment [1], the system named is EKVX NSCLC.
Experiment [2] concerns HL-60(TB) leukemia.
For experiment [3], the system named is SN12C renal.
Experiment [4] has as its system NCI-H23 lung.
The subject of experiment [5] is SK-OV-3 ovarian.
Experiment [6] has as its system KM12 colon.
In experiment [7] the test system is SW-620 colon.
Experiment [8] deals with CAKI-1 renal.
Experiment [9] deals with IGROV1 ovarian.
Experiment [10] relates to ACHN renal.
Experiment [11] relates to NCI-H226 lung.
Experiment [12] deals with RPMI-8226 leukemia.

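A five-concentration, 48-hour dose response in 96-well plates underlies each endpoint, interpolated linearly between surrounding concentrations. TGI marks complete inhibition of growth.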

Regarding `O=C1C(S(=O)(=O)c2ccccc2)=C(CS(=O)(=O)c2ccccc2)[C@@H](OCc2ccccc2)[C@@H]1OCc1ccccc1`, the TGI in [1] was greater than 100 µM; in experiment [2] it was 43.9 µM; in [3], 76.4 µM; in [4], 36.3 µM; in [5], greater than 100 µM; in experiment [6], 27.4 µM. Also, the TGI is 36.4 µM in experiment [7]; greater than 100 µM in experiment [8]; 33.8 µM in experiment [9]; greater than 100 µM in experiment [10]; 37.3 µM in [11]; 36.1 µM in [12].
Take `CC1C(c2ccccc2O)c2cc3c(cc2OC1N1CCOCC1)OCO3` (stereo unspecified): the TGI in experiment [1] is greater than 100 µM; in experiment [2] it was 40 µM; in experiment [3], greater than 100 µM; in experiment [4], 81 µM; in experiment [5] it was greater than 100 µM; in experiment [6] it was 91.6 µM. Further, the TGI was greater than 100 µM in experiment [7]; 77.5 µM in experiment [8]; greater than 100 µM in [9]; greater than 100 µM in [10]; 77.4 µM in [11]; 39.1 µM in experiment [12].
Turning to `CC(O)[C@@]1(c2ccccc2)CC2(CCN(C)CC2)O[C@H]1C` (stereo partly specified), the TGI was greater than 100 µM in experiment [1]; 95 µM in experiment [2]; greater than 100 µM in experiment [4]; greater than 100 µM in [5]; greater than 100 µM in experiment [6]; greater than 100 µM in experiment [7]. In addition, the TGI in experiment [8], in experiment [9], in experiment [10], in [11] and in experiment [12] was greater than 100 µM in each case.
As to `O=c1c2c(F)c(F)c(F)c(F)c2sc2nccn12`, the TGI in experiment [1] was determined as 50.2 µM; in experiment [2], 4.14 µM; in experiment [3], 33.3 µM; in experiment [4] it was 34.9 µM; in experiment [5], 36 µM; in [6], 32.2 µM. In addition, the TGI in experiment [7] was 33 µM; in experiment [8], 33.3 µM; in experiment [9] it was 32.3 µM; in experiment [10] it was 30 µM; in experiment [11], 52.3 µM; in experiment [12], 42.4 µM.
As for `O=C(N/N=C/C=C/c1ccc([N+](=O)[O-])o1)c1ccc(C(=O)N/N=C/C=C/c2ccc([N+](=O)[O-])o2)cc1`, the TGI in experiment [1] is greater than 100 µM; in experiment [2], greater than 65.2 µM; in experiment [3], greater than 54.5 µM; in [4], greater than 100 µM; in experiment [5], greater than 100 µM; in experiment [6], greater than 100 µM. In addition, the TGI is 98.5 µM in [7]; greater than 90 µM in experiment [8]; greater than 100 µM in experiment [9]; greater than 59.1 µM in experiment [10]; greater than 100 µM in [11]; greater than 32.9 µM in [12].
For `CN(C)c1ccc(/C=C/c2cc(-c3ccccc3)[n+](C)n2-c2ccccc2)cc1`, the TGI in [1] came out at 10.8 µM; in [2] it was 0.128 µM; in experiment [3], 7.6 µM; in [4] it was 0.92 µM; in experiment [5], 4.33 µM; in [6], 3.07 µM. Further, the TGI in experiment [7] was greater than 35.1 µM; in [8], 13 µM; in [9] it was 3.76 µM; in [10], 16 µM; in [11] it was 71 µM; in experiment [12], greater than 100 µM.
Take `O=c1oc2ccc3ccccc3c2cc1-c1nc2ccc([N+](=O)[O-])cc2o1`: the TGI in experiment [1] is greater than 100 µM; in [2], greater than 100 µM; in [3] it was greater than 100 µM; in experiment [4], greater than 86.9 µM; in experiment [5], greater than 100 µM; in [6], greater than 100 µM. The TGI is greater than 100 µM in [7]; greater than 91.4 µM in [8]; greater than 100 µM in experiment [9]; greater than 24.2 µM in [10]; greater than 100 µM in [11]; greater than 100 µM in [12].
In the case of `Cc1csc(NNC(=O)Nc2ccccc2)n1`, the TGI in experiment [1], in experiment [2], in experiment [3], in experiment [4], in experiment [5] and in [6] was greater than 100 µM in each case. The TGI in experiment [7], in [8], in experiment [9], in [10], in [11] and in [12] was greater than 100 µM in each case.
`C=CC1(C)OC2(CCN(C(=O)OCC)CC2)OC1C` (stereo unspecified): the TGI in experiment [1], in [2], in [4], in experiment [5], in experiment [6] and in experiment [7] was greater than 100 µM throughout. The TGI in [8], in experiment [9], in experiment [10], in experiment [11] and in experiment [12] was greater than 100 µM throughout.
Turning to `O=C1NC(=S)NC(=O)C1=C/C=C/c1ccc([N+](=O)[O-])cc1`, the TGI in [1] is 36.7 µM; in [2], greater than 100 µM; in [3], 34.7 µM; in experiment [4], 29.6 µM; in experiment [5] it was 36 µM; in [6], greater than 100 µM. For the same compound, the TGI in experiment [7] was 18.9 µM; in experiment [8], 30.8 µM; in [9], 28.2 µM; in experiment [10], 39 µM; in experiment [11] it was 44.3 µM; in experiment [12] it was greater than 100 µM.
Turning to `COC1=CC(=O)C2=C(C[C@@]3(C)C(=C2)C(CO)=CC[C@H]3O)C1=O`, the TGI was 38.8 µM in experiment [1]; 14.1 µM in experiment [2]; 32.8 µM in [3]; 48.7 µM in experiment [4]; greater than 100 µM in experiment [5]; greater than 100 µM in experiment [6]. For the same compound, the TGI was 60.6 µM in experiment [7]; greater than 100 µM in experiment [8]; 31.7 µM in experiment [9]; 33.1 µM in experiment [10]; 29.2 µM in experiment [11]; 44.5 µM in [12].
As to `CC(=O)/C(C=Nc1c(C)n(C)n(C)c1=O)=C(/O)c1ccccc1`, the TGI in experiment [1], in [2], in experiment [3], in experiment [4], in experiment [5] and in [7] was greater than 50 µM throughout. In addition, the TGI in [8], in experiment [9], in experiment [10], in [11] and in [12] was greater than 50 µM throughout.
